Where two headings read alike, the source gives them in different places.

Four molecules from US12440576B2, “Antibody drug conjugates comprising sting agonists” (Mersana Therapeutics, Inc., priority 2020, dated 2025) can be followed below.

Assay [1] has as its system STING pathway in THP1-Dual cells co-cultured with OVCAR3 cancer cells. Put plainly: Cancer cell/THP1-IRF3-Luciferase reporter cell co-culture assay, OVCAR3 (Example 26A). The assay is classed as cell-based. Particulars: Homo sapiens, OVCAR-3, 20 h. (In general: A reporter such as luciferase makes a cellular process visible.)
Description: Induction of STING pathway in immune cells: The induction of STING pathway in immune cells by NaPi2b-targeted STING ADC was evaluated by a cancer cell/THP1-IRF3-Luciferase reporter cell co-culture assay. OVCAR3 human ovarian carcinoma cells were seeded in 96-well CellBind surface tissue culture plates (15,000/well) and allowed to attach for 6 hours in RPMI-1640 medium with 10% FBS and 1% penicillin/streptomycin. […] THP1-dual reporter cells (30,000) were then added to each well and the incubation continued for 20 hours at 37° C. in a humidified atmosphere of 5% CO2. Cell culture supernatants (20 μl) from each incubated sample was added to resuspended QUANTI-Luc (50 l) and the luminescent signal was measured immediately using a SpectraMax M5 plate reader (Molecular Devices). The EC50 value was determined from the dose response curve.
Assay [2] relates to STING pathway in THP1-Dual cells co-cultured with SKBR3 cancer cells. Put plainly: Cancer cell/THP1-IRF3-Luciferase reporter cell co-culture assay, SKBR3 (Example 26B). Particulars: Homo sapiens, SK-BR-3. Type of assay: cell-based.
For assay [3], the system named is THP1-Dual cells cultured on NaPi2b recombinant peptide coated plates. Put plainly: THP1 luciferase reporter cells on NaPi2b peptide coated plates (Example 27A). Type of assay: cell-based. The following applies: Homo sapiens, 20 h.
Description: Human NaPi2b-derived peptide ([sequence]) was coated onto the surface of each well of a 96-well plate by incubation with the peptide (1p g/mL in PBS), overnight at 4° C. The wells were then washed 1× with PBS-T and blocked by incubation with BSA (3% in PBS-T) for 1 hour at room temperature. […] THP1-dual reporter cells (50,000) were added into each well and incubated for 20 hours at 37° C. in a humidified atmosphere of 5% CO2. Cell culture supernatants (20 μl) from each incubated sample was added to resuspended QUANTI-Luc (50 μl) and the luminescent signal was measured immediately using a SpectraMax M5 plate reader (Molecular Devices). The EC50 value was determined from the dose response curve.
Assay [4] has as its system THP1-Dual cells cultured on Her2 recombinant protein coated plates. Put plainly: THP1 luciferase reporter cells on Her2 protein coated plates (Example 27B). Type of assay: cell-based. The following applies: Homo sapiens.
Description: The wells were then washed 1× with PBS-T and blocked by incubation with BSA (3% in PBS-T) for 1 hour at room temperature. […] THP1-dual reporter cells (50,000) were added into each well and incubated for 20 hours at 37° C. in a humidified atmosphere of 5% CO2. Cell culture supernatants (20 μl) from each incubated sample was added to resuspended QUANTI-Luc (50 μl) and the luminescent signal was measured immediately using a SpectraMax M5 plate reader (Molecular Devices). The EC50 value was determined from the dose response curve.
Assay [5] concerns STING wild type (sgNT-2) SKBR3 cells. Put plainly: PBMC killing assay, STING wild type SKBR3 NucRed cells (Examples 30, 30A). The assay is classed as cell-based, human. Particulars: 100, 25, 5 and 1 nM payload.
Assay [6] relates to OVCAR3-NucRed cancer cells. The assay is described as follows: OVCAR3-NucRed co-cultures with PBMCs, enriched monocytes or CD16-depleted monocytes (Example 31). Type of assay: cell-based, human. Particulars: 20 and 4 nM payload. The source says:
Frozen human PBMCs (1×10^8) were thawed and aliquoted into three tubes: one aliquot was subjected to human monocyte enrichment [StemCell Technologies] (“CD16 depleted monocytes”), one aliquot was subjected to human monocyte enrichment without CD16 depletion [StemCell Technologies] (“enriched monocytes”), and one aliquot was not subjected to enrichment (“PBMCs”). For flow cytometry, cells (50,000) from each group were transferred to a U-bottom 96-well plate in 4-replicates, washed with PBS and stained with live/dead fixable Aqua dead cell staining dye (Molecular Probes) followed by staining with fluorophore conjugated target specific (triplicates) or isotype control antibodies (Pacific Blue anti-human CD14, FITC anti-human CD3, APC/Cy7 CD16, PE anti-human CD32, PE/Cy7 anti-human CD64). Cells were fixed and surface expression of the proteins of interest was determined by flow cytometry analysis on a MACSQuant flow cytometer. Data analysis was performed by FlowJo software. Table 3 provides the frequency (% of single/live cells)) of CD14−/CD16+, CD14+/CD16+, CD14−/CD32+, CD14+/CD32+, CD14−/CD64+, CD14+/CD64+, and CD14−/CD3+ cells in PBMCs, enriched monocytes, and CD16-depleted monocyte populations
OVCAR3-NucRed cells (generated as described in Example 28) were seeded (15,000/well) in 96-well CellBind surface tissue culture plates (Corning) and allowed to attach for 6 hours in RPMI-1640 medium with 10% FBS and 1% penicillin/streptomycin. Culture medium was replaced with fresh media (50 μL). […] PBMCs, enriched monocytes, and CD16-depleted monocytes were prepared as described in Example 29. Live PBMCs (30,000/well), enriched monocytes (20,000/well), and CD16-depleted monocytes (20,000/well) were then added to the wells in culture medium (50 μL) and the plate was placed in an IncuCyte© live cell imaging instrument in an incubator (37° C., 5% 02) and scanned every 4 hours over 2 days. The number of red objects (cancer cells) were quantified using the IncuCyte© Zoom software. Red object confluency in each well was normalized to its own T=0 time point red object confluency.

Assay [7] relates to SKBR3 NucRed cells. The assay is described as follows: Cancer cell killing activity in SKBR3 NucRed/PBMC or primary human monocyte co-cultures (Example 33). The assay is classed as cell-based.
Description: 20,000 cells (per well) SKBR3 NucRed cells were seeded in 96-well tissue culture plates and allowed to attach 6 hours in 50 μL of RPMI-1640 medium with 10% FBS and 1% penicillin/streptomycin.
In assay [8] the test system is CXCL10 induction. Put plainly: CXCL10 induction in SKBR3 cancer cell/PBMC and monocyte co-cultures (Example 33). The assay is classed as cell-based. The following applies: Homo sapiens.
Assay [9] has as its system IL29/IL28b induction (IFNλ1/λ3). Put plainly: Type III IFN induction, human IL29/IL28b ELISA, SKBR3/PBMC co-cultures (Example 33). Type of assay: cell-based. The following applies: SK-BR-3, SKBR3/PBMC co-culture, supernatants 24 hours post treatment. As to the method: (§1) Type III IFN induction: Co-cultures of SKBR3 cells and PBMCs were setup as described above to analyze the induction of Type III Interferons in supernatants 24 hours post treatment using a human IL29/IL28b ELISA kit.
A general note: An ELISA detects its analyte on a solid surface through an enzyme-linked reagent.

Assay [10] has as its system CXCL10 produced by the SKOV3 cancer cell monocultures. The assay is described as follows: CXCL10 ELISA of SKOV3 monocultures with conditioned media from immune cells (Example 36). The assay is classed as cell-based, human. The following applies: 24 hours. As to the method:
Conditioned media was prepared by culturing 1.5×10^6/mL PBMCs (two different donors), 1×10^6/mL primary monocytes (isolated from PBMCs from two different donors, as described in Example 29), or 1×10^6/mL THP1 cells in RPMI-1640 medium with 10% FBS and 1% penicillin/streptomycin for 24 hours at 37° C., 5% O2, in an incubator. The supernatants were collected and spun down at 2000 rpm for 10 min to remove any cells. SKOV3 cells were seeded in 96 well plates (30,000/well) and allowed to attach overnight in RPMI-1640 medium with 10% FBS and 1% penicillin/streptomycin. […] After incubation for 24 hours at 37° C., 5% O2 supernatants from the 96 well plates were analyzed for CXCL10 production using a human CXCL10 ELISA kit.

The subject of assay [11] is Type III Interferons IFNλ1/IFNλ3 (IL29/IL28b). The assay is described as follows: IFNλ1/IFNλ3 (IL29/IL28b) production, STING wild type SKBR3/PBMC co-cultures (Example 42). Type of assay: cell-based, human. As to the method: as §1
Assay [12] has the same test system. Put plainly: IFNλ1/IFNλ3 (IL29/IL28b) production, STING knock out SKBR3/PBMC co-cultures (Example 42). Type of assay: cell-based, human. As to the method: as §1
Assay [13] relates to STING pathway in THP1-Dual cells co-cultured with SKOV3 cancer cells. Put plainly: Cancer cell/THP1-IRF3-Luciferase reporter cell co-culture assay, SKOV3 (Example 34). Type of assay: cell-based. The following applies: Homo sapiens, SK-OV-3, 20 h.
Description: The induction of STING pathway in immune cells by Her2-targeted STING ADC was evaluated by a cancer cell/THP1-IRF3-Luciferase reporter cell co-culture assay. SKOV3 human ovarian adenocarcinoma cells were seeded in 96-well CellBind surface tissue culture plates (20,000/well) and allowed to attach for 6 hours in McCoy's 5a medium with 10% FBS and 1% penicillin/streptomycin. […] 50,000 THP1-dual reporter cells were then added to each well and the incubation continued for 20 hours at 37° C. in a humidified atmosphere of 5% CO2. Cell culture supernatants (20 μL) from each incubated sample was added to resuspended QUANTI-Luc (50 μL) and the luminescent signal for IRF3 was measured immediately using a SpectraMax M5 plate reader (Molecular Devices). The EC50 value was determined from the dose response curve.
Assay [14] relates to CXCL10 induction. Put plainly: CXCL10 induction in Calu3 cancer cell/PBMC co-cultures (Example 35). The assay is classed as cell-based. Particulars: Homo sapiens, Calu-3, read-out: EC50 - PBMC (CXCL10 induction).
Description: CXCL10 induction: Calu3 human lung adenocarcinoma cells were seeded in 96-well tissue culture plates and allowed to attach overnight at 37° C., 5% CO2 in 100 μL of EMEM medium with 10% FBS and 1% penicillin/streptomycin. Culture medium was replaced with fresh media (100 μL).
Assay [15] has as its system SKOV3 human ovarian cancer cells. Put plainly: SKOV3 xenograft, Fc mutant HER2 ADCs (Example 54). Type of assay: in vivo, mouse. Particulars: iv day 1, n=10: Conjugate 8j 2.71/0.10, diABZI IV STING agonist 0/5 mg/kg. As to the method:
Tumors were measured twice weekly using digital calipers and tumor volumes were calculated using the formula: tumor volume (mm^3)=(width^2×length)/2. Body weights were recorded daily for the first week and twice weekly thereafter. Animals remained on study until individual tumor volume reached ≥1000 mm^3≥1500 mm^3 or as indicated. Percent change in body weight was calculated using the formula: body weight change (%)=((weight^study day X−weight^study day 1)/weight^study day 1)*100. Tumor volumes are reported as mean±standard error of the mean (SEM). Tumor growth inhibition (% TGI) was defined as the percent difference in mean tumor volumes (MTVs) between treated and control groups. Tumor size was measured throughout each efficacy study to determine tumor growth inhibition (TGI). Percent tumor regression was calculated using the formula: % regression=(1−(mean tumor volume^final)/(mean tumor volume^day 1))*100. A partial response (PR) is defined as a tumor volume of 50% or less for day 1 volume for three consecutive measurements and equal to or greater than 13.5 mm^3 for at least one of these three measurements. A complete response (CR) is defined as a tumor volume less than 13.5 mm^3 for three consecutive measurements. A tumor-free survivor (TFS) is classified as having a CR at the end of study. […]

Assay [16] relates to OVCAR3-NucRed cells. The assay is described as follows: OVCAR3-NucRed/PBMC co-culture killing assay (Example 28B). The assay is classed as cell-based, human. As to the method: OVCAR3 human ovarian carcinoma cells stably expressing nuclear restricted mKate fluorescent red protein were generated by transduction with IncuCyte© NucLight Red Lentivirus reagent. Stably transduced cells (designated as OVCAR3-NucRed cells) selected in puromycin-containing media (2 μg/mL) for two days, were seeded in 96-well tissue culture plates (8,000/well) and allowed to attach overnight in RPMI-1640 medium with 10% FBS and 1% penicillin/streptomycin. Culture medium was replaced with fresh media (50 μL). […] Frozen human peripheral blood mononuclear cells (PBMCs) were thawed according to the supplier's instructions and were added to each well (40,000 PBMCs in 50 μL media) and the plate was placed in an IncuCyte© live cell imaging instrument in an incubator (37° C., 5% 02) and scanned every 4 hours over 2 days. The number of red objects (cancer cells) were quantified using the IncuCyte© Zoom software. Red object confluency in each well was normalized to its own T=0 time point red object confluency.
OVCAR3-NucRed cells were seeded in 96-well tissue culture plates (20,000/well) and allowed to attach 6 hours in RPMI-1640 medium with 10% FBS and 1% penicillin/streptomycin. Culture medium was replaced with fresh media (50 μL). […] The number of red objects (cancer cells) were quantified using the IncuCyte© Zoom software. […]

For `CCn1nc(C)cc1C(=O)Nc1nc2cc(C(N)=O)cc(OC)c2n1C/C=C/Cn1c(NC(=O)c2cc(C)nn2CC)nc2cc(C(N)=O)cc(OCCCO)c21` [Compound 1], the EC50 in assay [1] is 6.8 nM; in assay [2], 7.4 nM; in [3] it was 5.18 nM; in assay [4], 8.8 nM; in assay [8] (Monocyte, read-out: EC50 - Monocyte (CXCL10 induction)) it was 31.1 nM; in assay [8] (SK-BR-3, read-out: EC50 - PBMC (CXCL10 induction)) it was 26.1 nM. Besides, the EC50 in assay [9] was found to be 28.3 nM; in assay [11] (Homo sapiens, SK-BR-3, read-out: EC50 (IL29/IL28b production)) it was 49.3 nM. For the same molecule, in [5], the “killing of SKBR3 cells/PBMC co-cultures (FIG. 3A)” value is “showed activity in STING wild type (sgNT-2) SKBR3 cells/PBMC co-cultures at 100 nM only”. In addition, the “killing of OVCAR3-NucRed cancer cells by CD16 depleted monocytes (FIG. 5C)” value in assay [6] is listed as “induced cancer cell killing”. In addition, the “killing of OVCAR3-NucRed cancer cells by PBMCs (FIG. 5A)” value in assay [6] is “only in enriched monocyte and CD16-depleted monocyte co-cultures”. In addition, in assay [6], the “killing of OVCAR3-NucRed cancer cells by enriched monocytes (FIG. 5B)” value is reported as “induced cancer cell killing”. Moreover, the IC50 – broadly, the midpoint of a concentration-inhibition curve – in assay [7] (SK-BR-3, read-out: IC50 - Monocyte (killing activity)) is 8.32 nM; in assay [7] (SK-BR-3, read-out: IC50 - PBMC (killing activity)), 9.51 nM. For the same molecule, the “O.D. 450 + 100 nM Compound 1 (CXCL10)” value was 1.62 +/− 0.050 O.D. 450 in [10] (Conditioned Media: Monocyte (Donor1)); 0.97 +/− 0.142 O.D. 450 in assay [10] (Conditioned Media: Monocyte (Donor2)); 0.16 +/− 0.038 O.D. 450 in assay [10] (Conditioned Media: None); 2.22 +/− 0.084 O.D. 450 in [10] (Conditioned Media: PBMC (Donor1)); 0.83 +/− 0.086 O.D. 450 in assay [10] (Conditioned Media: PBMC (Donor2)); 0.18 +/− 0.043 O.D. 450 in assay [10] (Conditioned Media: THP1). Further, the “Bmax (IL29/IL28b production)” value in assay [11] (STING wild type SKBR3/PBMC) came to 0.5 OD450; in assay [12] (STING knock out (sgRNA#3) SKBR3/PBMC) it was 0 OD450; in assay [12] (STING knock out (sgRNA#4) SKBR3/PBMC) it was 0 OD450.
With `CCc1nc(C)oc1C(=O)Nc1nc2cc(C(N)=O)cnc2n1C/C=C/Cn1c(NC(=O)c2oc(C)nc2CC)nc2cc(C(N)=O)cc(OCCCO)c21` [Compound 30], the values for the EC50 in [13] and in assay [14] were 38.5 nM and 160 nM, respectively.
diABZI IV STING agonist: in [15], the “PR (partial responses)” value worked out at 7.

B1: Conjugate 81: "XMT-1535 was used instead of XMT-1519 and 2-(2-(2-(2-aminoethoxy)ethoxy)ethoxy)acetic acid was incorporated" instead of (3-(2-(2-aminoethoxy)ethoxy)propanoyl)-L-alanine (conjugate, chains of the INN, looked up)
VH: QVQLVQSGAEVVKPGASVKMSCKASGYTFTGYNIHWVKQAPGQGLEWIGAIYPGNGDTSYKQKFRGRATLTADTSTSTVYMELSSLRSEDSAVYYCARGETARATFAYWGQGTLVTVSS
VL: DIQMTQSPSSLSASVGDRVTITCSASQDIGNFLNWYQQKPGKTVKVLIYYTSSLYSGVPSRFSGSGSGTDYTLTISSLQPEDFATYYCQQYSKLPLTFGQGTKLELK
modifications: drug-linker conjugate with PEG linker
As for B1, the “lower payload concentration compared to Compound 1 for induction of cancer cell killing” value in assay [16] is given as 100 ×. Further, the “cancer cell killing by PBMCs (red object numbers, FIG. 1B)” value in [16] (1-100 nM payload) is reported as “robust induction of cancer cell killing”.
